The source of these data is patent US20150093333A1, “COMPOSITIONS, METHODS AND USES FOR PEPTIDES IN DIAGNOSIS, PROGRESSION AND TREATMENT OF CANCERS” (THE REGENTS OF THE UNIVERSITY OF COLORADO, body corporate, priority 2003, published 2015).

Read-outs that look alike come from different tables or passages of the source.

The subject of one test is exosomes (Ex). Briefly: Fluorescence enhancement of BK derived peptides with exosomes from rat blood plasma. The class given is binding. Particulars: Ex treated peptide vs untreated. The source says:
In support of the observations with synthetic vesicles to translate to naturally-occurring extracellular vesicles, exosomes (Ex) purified from blood plasma of rats underwent inescapable tailshock stress as an acceptable model of exosome release. Ex have diameters of 40-100 nm, therefore providing a good biological model for testing the curvature-sensing peptides. […] The total number of Ex in the sample was counted by nanoparticle tracking analysis to ensure that is in the same order of magnitude as the 500 μM lipids in the synthetic models.

The next test concerns the target lipid vesicles. Description: Fluorescence anisotropy titration of BK derived peptides with lipid vesicles. It is filed as binding. Particulars: read-out: Dissociation constant (Kd). The procedure:
In another method, synthetic lipid vesicles of various sizes were prepared to model different membrane curvatures for testing interactions. Three compositions of vesicles were designed to closely resemble natural biological membranes named lipid model (LM) 1, 2, and 3. These vesicles were prepared by extrusion under inert, pressure-controlled method through polycarbonate membranes with pore sizes of 400, 80, and 30 nm to cover a wide range of curvatures. Since curvature is defined as the inverse of radius, the smallest size represents vesicles with the highest curvature. […] These vesicles were further characterized by transmission electron microscopy (TEM) to verify the sizes found by DLS.
In other exemplary methods, binding strength of the interactions were assessed. Fluorescence anisotropy (FA) assay was adopted to measure the binding constants. The peptide partitions between the hydrophobic lipid bilayer and the aqueous solvent and the dissociation constant (Kd) calculated as the reciprocal of the molar partition coefficient. A constant concentration of peptide was titrated with increasing concentration of lipid vesicles and the FA due to the change in the rotational time of the small peptide when it binds to the relatively bigger lipid vesicles was measured and plotted versus the total lipid concentration. […] Fluorescence anisotropy titration was performed to obtain the Kd values. Lower values indicate stronger binding. LM=liposome model. [Peptide]=1 μM; [Lipid titrant]=2 mM.

Test [1] has as its system PS-exposing cell membranes. Description: Fluorescence staining of PS-exposing membranes in dissected gonads of C. elegans. It is filed as in vivo. Particulars: wild type (N2), tat-1(tm3117) and ced-7(n2094) animals. How it is done:
Fluorescence staining assays were carried out in an acceptible C. elegans model with PS-exposing cell membranes. […] NBD-MARCKS-ED was used to stain the dissected gonads of wild type (N2) animals, tat-1(tm3117) mutant animals, and engulfment-deficient ced-7 (n2094) mutant animals, respectively. 36 hour old hermaphrodite adult animals were collected and gently dissected by cutting their heads in a depression slide with a gonad dissection buffer (previously presented) to expose the gonads. The exposed gonads were then washed once in the dissection buffer and transferred to a dissection buffer containing 4 μM of Hoechst 33342 and 20 μM of NBD labeled MARCKS-ED peptide, 20 μM NBD-MARCKSmut1 peptide, or 10 nM Alexa Fluor 488-conjugated Annexin-V for 45 minutes. Gonads were washed one more time in the dissection buffer, placed on a 5% agarose pad, and visualized using a Nomarski microscope equipped with an epifluorescence detector.
FIGS. 6A-6C illustrate exemplary staining results using MARCKS derived peptides and Annexin V. PS is typically kept in the inner leaflet of plasma membranes in living cells and is exposed on the cell surface only under certain cellular events, i.e., when cells undergo apoptosis or lose the ability to maintain the PS asymmetry with a tat-1 gene mutation. FIG. 6A represents the staining results with labeled MARCKS-ED in wild type and mutants C. elegans. […] FIG. 6B represents the staining results with labeled MARCKSmut1 in wild type and mutants C. elegans. […] In FIGS. 6A-6B, nuclei were stained with Hoechst 33342. Annexin-V, a known PS-sensor, was also used to stain the gonads of tat-1 and ced-7 mutant C. elegans. […] Hoechst33342 (4 μM), FITC-AnnexinV (10 nM) and Nomarski images are shown. […] Scale bar=10 μm.

The next test deals with isolated microvesicles. Description: Fluorescence enhancement with isolated rat microvesicles. The class given is binding. How it is done: In another exemplary method, having established the simultaneous curvature- and PS-sensing by MARCKS-ED in synthetic liposomes, MARCKS-ED was tested on detection of highly curved, PS-enriched particles in a complex biological system. Microvesicles (ø=0.03-1 μm) are highly curved lipid vesicles that shed into body fluids (e.g., blood, urine, ascitic fluid). These vesicles are released by cancerous cells in which lipid asymmetry is de-regulated, contributing to externalization and enrichment of PS on their outer leaflet. The microvesicle detecting ability of MARCKS-ED was investigated using plasma samples from a stressed rat model. […]
Microvesicles in these samples were characterized by TEM imaging, and ELISA of detection of the signature CD63 protein and the membrane transport protein Rab5b exposed on the surface. Particles expressing both proteins were captured by antibodies and quantified in a colorimetric endpoint assay.
These isolated microvesicles were measured by nanoparticle tracking analysis (NTA) to confirm their average size (ø=56 nm). Tracking analyses were performed using the NanoSight LM10-HS instrument (Amesbury, UK) equipped with a 532 nm laser and observed at scatter and fluorescence modes (filter=550 nm). […]
Monitored at λex=295 nm, Annexin-V (0.32 μM) was treated with CaCl2 (3 mM) in TES buffer and with 500 μM lipid vesicles of varying PS content. […]

Regarding “monomeric Bradykinin derivative: GRPPGFSPFR with ε-azidolysine and NBD-X fluorophore at the N-terminus [Peptide 1]”, the fluorescence intensity in the test with exosomes (Ex) is listed as 3.09±0.08 RFU. The Kd on lipid vesicles (LM 1 V58) is 996 ± 230 µM; at lipid vesicles (LM 1 V116), 940 ± 160 µM; on lipid vesicles (LM 1 V454), 7.14 µM; on lipid vesicles (LM 2 V116), 585 ± 62 µM; at lipid vesicles (LM 2 V454) it was over 1000 µM; on lipid vesicles (LM 2 V), 488 ± 72 µM. In addition, the Kd came out at 407 ± 56 µM at lipid vesicles (LM 3 V58), 893 ± 101 µM on lipid vesicles (LM 3 V116) and 902 ± 141 µM at lipid vesicles (LM 3 V454).

On to “Annexin-V: established PS-sensing protein, positive control [reference compound]”, for which the “staining of PS-exposed membranes” value in test [1] was “germ cell corpses stained with both Hoechst and FITC-AnnexinV protein”. Besides, the “binding to isolated microvesicles (fluorescence enhancement)” value in the test with isolated microvesicles is on record as “Fluorescence enhancement was observed”.
